US6737383B1, “Herbicidal oxadiazolidines” (priority 1999, dated 2004)

Columns and labels:
[1] = system: blackgrass; test: Test B pre/postemergence blackgrass; format: in vivo, Alopecurus myosuroides
Outline: (§1)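 Test chemicals in a non-phytotoxic solvent mixture with surfactant were sprayed preemergence onto planted seeds and postemergence onto plants 2 to 18 cm tall (1- to 4-leaf stage). After twelve to sixteen days in a greenhouse, injury was visually rated against untreated controls from 0 (no effect) to 10 (complete control).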

[2] = system: wild oat; test: Test B pre/postemergence wild oat; format: in vivo, Avena fatua; settings: for Plant response rating, Wild oats: Rate 250 g/ha
Outline: as §1

[3] = system: bamyardgrass; test: Test B flood test barnyardgrass; format: in vivo, Echinochloa crus-galli
Outline: (§2)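 Plants were grown to the 2-leaf stage before treatment with test chemical, then held in a greenhouse for twelve to sixteen days. Injury was visually rated against untreated controls on a 0–10 scale, where 0 is no effect and 10 is complete control.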

[4] = system: velvetleaf; test: Test B pre/postemergence velvetleaf; format: in vivo, Abutilon theophrasti; settings: for Plant response rating, Velvetleaf: Rate 250 g/ha
Outline: as §1

[5] = system: sugar beet; test: Test B pre/postemergence sugar beet; format: in vivo, Beta vulgaris; settings: for Plant response rating, Sugarbeets: Rate 250 g/ha
Outline: as §1

[6] = system: wheat; test: Test B pre/postemergence wheat; format: in vivo, Triticum aestivum; settings: for Plant response rating, Wheat: Rate 250 g/ha
Outline: as §1

[7] = system: giant foxtail; test: Test B pre/postemergence giant foxtail; format: in vivo, Setaria faberii
Outline: as §1

[8] = system: soybean; test: Test B pre/postemergence soybean; format: in vivo, Glycine max
Outline: as §1

[9] = system: pigweed; test: Test B pre/postemergence pigweed; format: in vivo, Amaranthus retroflexus
Outline: as §1

[10] = system: rape; test: Test B pre/postemergence rape; format: in vivo, Brassica napus
Outline: as §1

[11] = system: smallflower flatsedge; test: Test B flood test smallflower flatsedge; format: in vivo, Cyperus difformis
Outline: as §2

[12] = system: bedstraw; test: Test B pre/postemergence bedstraw; format: in vivo, Galium aparine
Outline: as §1

[13] = system: purple nutsedge; test: Test B pre/postemergence purple nutsedge; format: in vivo, Cyperus rotundus
Outline: as §1

[14] = system: rice; test: Test B flood test rice; format: in vivo, Oryza sativa
Outline: as §2

[15] = system: morningglory; test: Test B pre/postemergence morningglory; format: in vivo, Ipomoea hederacea
Outline: as §1

[16] = system: duck salad; test: Test B flood test duck salad; format: in vivo, Heteranthera limosa
Outline: as §2

[17] = Postemergence, Rate 125 g/ha, scale of 0 to 10 where 0 is no effect and 10 is complete control
[18] = Postemergence, Rate 250 g/ha, scale 0 to 10, 0 no effect, 10 complete control
[19] = Preemergence, Rate 62 g/ha, scale 0 to 10 (0 no effect, 10 complete control)
[20] = Preemergence, Rate 125 g/ha, scale 0 to 10 (0 no effect, 10 complete control)
[21] = Preemergence, Rate 250 g/ha, scale of 0 to 10 where 0 is no effect and 10 is complete control
[22] = Preemergence, Rate 500 g/ha, scale 0 to 10 (0 no effect, 10 complete control)
[23] = Rate 62 g/ha, Postemergence, scale of 0 to 10 where 0 is no effect and 10 is complete control
[24] = Rate 500 g/ha, Postemergence, scale 0 to 10, 0 no effect, 10 complete control
[25] = Preemergence, Rate 125 g/ha, 0 is no effect, 10 is complete control
[26] = Preemergence, scale of 0 to 10 where 0 is no effect and 10 is complete control
[27] = Postemergence, scale 0 to 10, 0 is no effect, 10 is complete control
[28] = Postemergence, Rate 62 g/ha, scale 0 to 10, 0 is no effect, 10 is complete control
[29] = Rate 500 g/ha, listed under Postemergence (flood test species), scale 0 to 10, 0 no effect, 10 complete control
[30] = flood test, listed under Postemergence, Rate 250 g/ha, scale 0 to 10, 0 no effect, 10 complete control
[31] = Rate 250 g/ha, Postemergence, scale 0 to 10, 0 is no effect, 10 is complete control
[32] = Postemergence (flood test species), Rate 125 g/ha, scale of 0 to 10 where 0 is no effect and 10 is complete control
[33] = Rate 62 g/ha, Postemergence section, flood test species, scale of 0 to 10 where 0 is no effect and 10 is complete control
[34] = Rate 250 g/ha, Postemergence (flood test), scale 0 to 10, 0 is no effect, 10 is complete control

CC(C)N(C(=O)n1oc(=O)n(C2CCCCC2)c1=O)c1ccccc1 [Compound 112]
Blackgrass plant response rating [1, 17]: 4 | Blackgrass plant response rating [1, 18]: 5 | Blackgrass plant response rating [1, 19]: 0 | Plant response rating, Blackgrass [1, 20]: 0 | Plant response rating, Blackgrass [1, 21]: 2 | Blackgrass plant response rating [1, 22]: 5 | Blackgrass plant response rating [1, 23]: 0 | Blackgrass plant response rating [1, 24]: 7 | Wild oats plant response rating [2, 17]: 0 | Wild oats plant response rating [2, 19]: 0 | Wild oats plant response rating (0 to 10 scale) [2, 25]: 0 | Plant response rating, Wild oats [2, 26]: 2 | Wild oats plant response rating [2, 22]: 6 | Wild oats plant response rating [2, 23]: 0 | Plant response rating, Wild oats [2, 27]: 0 | Wild oats plant response rating [2, 24]: 1 | Barnyardgrass plant response rating [3, 28]: 0 | Barnyardgrass plant response rating ([3]; Rate 125 g/ha, Postemergence section (flood test species), scale 0 to 10, 0 no effect, 10 complete control): 0 | Barnyardgrass plant response rating [3, 29]: 0 | Barnyardgrass plant response rating [3, 30]: 0 | Velvetleaf plant response rating [4, 17]: 0 | Velvetleaf plant response rating [4, 19]: 0 | Velvetleaf plant response rating (0 to 10 scale) [4, 25]: 2 | Plant response rating, Velvetleaf [4, 26]: 4 | Velvetleaf plant response rating [4, 22]: 5 | Velvetleaf plant response rating [4, 23]: 0 | Plant response rating, Velvetleaf [4, 27]: 1 | Velvetleaf plant response rating [4, 24]: 1 | Sugarbeets plant response rating [5, 17]: 2 | Sugarbeets plant response rating [5, 19]: 0 | Sugarbeets plant response rating (0 to 10 scale) [5, 25]: 0 | Plant response rating, Sugarbeets [5, 26]: 0 | Sugarbeets plant response rating [5, 22]: 0 | Sugarbeets plant response rating [5, 23]: 2 | Plant response rating, Sugarbeets [5, 27]: 3 | Sugarbeets plant response rating [5, 24]: 3 | Wheat plant response rating [6, 17]: 0 | Wheat plant response rating [6, 19]: 0 | Wheat plant response rating (0 to 10 scale) [6, 25]: 0 | Plant response rating, Wheat [6, 26]: 0 | Wheat plant response rating [6, 22]: 0 | Wheat plant response rating [6, 23]: 0 | Plant response rating, Wheat [6, 27]: 0 | Wheat plant response rating [6, 24]: 0 | Giant foxtail plant response rating [7, 17]: 7 | Giant foxtail plant response rating [7, 18]: 7 | Giant foxtail plant response rating [7, 19]: 8 | Plant response rating, Giant foxtail [7, 20]: 10 | Plant response rating, Giant foxtail [7, 21]: 10 | Giant foxtail plant response rating [7, 22]: 10 | Giant foxtail plant response rating [7, 23]: 2 | Giant foxtail plant response rating [7, 24]: 8 | Soybean plant response rating [8, 17]: 4 | Soybean plant response rating [8, 19]: 0 | Plant response rating, Soybean [8, 20]: 0 | Plant response rating, Soybean [8, 21]: 0 | Soybean plant response rating [8, 22]: 4 | Soybean plant response rating [8, 23]: 4 | Plant response rating, Soybean [8, 31]: 4 | Soybean plant response rating [8, 24]: 7 | Redroot pigweed plant response rating [9, 17]: 3 | Redroot pigweed plant response rating [9, 19]: 0 | Plant response rating, Redroot pigweed [9, 20]: 2 | Plant response rating, Redroot pigweed [9, 21]: 7 | Redroot pigweed plant response rating [9, 22]: 9 | Redroot pigweed plant response rating [9, 23]: 2 | Plant response rating, Redroot pigweed [9, 31]: 5 | Redroot pigweed plant response rating [9, 24]: 5 | Rape plant response rating [10, 17]: 2 | Rape plant response rating [10, 18]: 3 | Rape plant response rating [10, 19]: 0 | Plant response rating, Rape [10, 20]: 0 | Plant response rating, Rape [10, 21]: 0 | Rape plant response rating [10, 22]: 5 | Rape plant response rating [10, 23]: 2 | Rape plant response rating [10, 24]: 4 | S. Flatsedge plant response rating [11, 32]: 0 | S. Flatsedge plant response rating [11, 33]: 0 | Plant response rating, S. Flatsedge [11, 34]: 0 | S. Flatsedge plant response rating [11, 29]: 0 | Bedstraw plant response rating [12, 28]: 0 | Bedstraw plant response rating [12, 18]: 7 | Bedstraw plant response rating [12, 19]: 0 | Plant response rating, Bedstraw [12, 20]: 0 | Plant response rating, Bedstraw [12, 21]: 0 | Bedstraw plant response rating [12, 22]: 0 | Bedstraw plant response rating ([12]; Rate 125 g/ha, Postemergence, scale 0 to 10, 0 no effect, 10 complete control): 0 | Nutsedge plant response rating [13, 17]: 0 | Nutsedge plant response rating [13, 18]: 0 | Nutsedge plant response rating [13, 19]: 0 | Plant response rating, Nutsedge [13, 20]: 0 | Plant response rating, Nutsedge [13, 21]: 0 | Nutsedge plant response rating [13, 22]: 0 | Nutsedge plant response rating [13, 23]: 0 | Nutsedge plant response rating [13, 24]: 0 | Rice plant response rating [14, 32]: 0 | Rice plant response rating [14, 33]: 0 | Plant response rating, Rice [14, 34]: 0 | Rice plant response rating [14, 29]: 0 | Morningglory plant response rating [15, 17]: 10 | Morningglory plant response rating [15, 18]: 10 | Morningglory plant response rating [15, 19]: 0 | Plant response rating, Morningglory [15, 20]: 2 | Plant response rating, Morningglory [15, 21]: 2 | Morningglory plant response rating [15, 22]: 2 | Morningglory plant response rating [15, 23]: 8 | Morningglory plant response rating [15, 24]: 10 | Ducksalad plant response rating [16, 32]: 0 | Ducksalad plant response rating [16, 33]: 0 | Ducksalad plant response rating [16, 29]: 0 | Ducksalad plant response rating [16, 30]: 0
